Test results reported in patent publication US20140194353A1, “COMPOSITIONS AND METHODS FOR THE TREATMENT OF NERVOUS DISORDERS ASSOCIATED WITH DIABETES” (Joslin Diabetes Center, Inc., priority 2010, published 2014).

Assays:
[1] = test system: SREBP-2 and its downstream cholesterologenic genes in the hypothalamus; test: qPCR of Srebf2 and cholesterologenic genes in hypothalami of STZ-diabetic mice; type: in vivo, mouse
Method: (§1) For STZ-induced diabetes and systemic insulin therapy experiments, 7-week-old C57Bl/6 mice were treated with a single intraperitoneal (i.p.) injection (200 μg/g body weight) of STZ (Sigma). After 2 days, the mice were separated into two groups. Half remained untreated, and the other half were treated with subcutaneous insulin pellets (LinShin, Toronto, Canada) for one week to control blood glucose levels. For phlorizin (PHZ) treatment, 8-week-old C57Bl/6 mice were treated with STZ. PHZ (Sigma) was dissolved in a solution containing 10% ethanol, 15% DMSO, and 75% saline and was injected subcutaneously (0.4 g/kg) twice daily for 10 days starting 8 days after the STZ injection. Control mice were injected with the same volume of vehicle.
For qPCR, RNA was isolated using an RNeasy kit (Qiagen). As a template, 1 μg (for tissue) or 0.2 μg (for glia and neurons) of total RNA was reverse-transcribed in 50 μl using a High Capacity cDNA Reverse Transcription Kit (Applied Biosystems) according to the manufacturer's instructions. […] Analysis of gene expression was done in the ABI PRISM 7000 sequence detector with an initial denaturation at 95° C. for 10 minutes followed by 40 PCR cycles, each cycle consisting of 95° C. for 15 seconds and 60° C. for 1 minute, and SYBR Green fluorescence emissions were monitored after each cycle. For each gene, mRNA expression was calculated relative to Tbp (mouse) or ribosomal 18S (human) expression as an internal control.
To determine whether hyperglycemia or insulin insufficiency was predominantly responsible for the above-observed suppression of cholesterol synthesis pathway in the diabetic mouse brain, we treated the STZ-induced diabetic mice with phlorizin (PHZ), a flavonoid which can decrease blood glucose levels by inhibition of renal glucose transport without restoring insulin secretion using the methods disclosed in Example 1. […] Control mice were injected with the same volume of vehicle. mRNA levels were then assessed by qPCR as disclosed in Example 1. […]

STZ-diabetic mice [2] = test: Blood glucose levels in STZ-diabetic mice; type: in vivo, mouse
Method: as §1
To determine whether hyperglycemia or insulin insufficiency was predominantly responsible for the above-observed suppression of cholesterol synthesis pathway in the diabetic mouse brain, we treated the STZ-induced diabetic mice with phlorizin (PHZ), a flavonoid which can decrease blood glucose levels by inhibition of renal glucose transport without restoring insulin secretion using the methods disclosed in Example 1. Additionally, phlorizin (PHZ) treatment was performed using 8-week-old C57Bl/6 mice previously treated with STZ. […] Control mice were injected with the same volume of vehicle. mRNA levels were then assessed by qPCR as disclosed in Example 1. […]

cultured neurons = test: Pharmacological inhibition of insulin signaling pathways, cholesterol synthetic gene expression; type: cell-based, mouse
[3] = test system: Pomc, Agrp, Npy expression; test: qPCR of neuropeptides regulating appetite in hypothalamus after insulin ICV injection; type: in vivo, mouse; conditions: STZ-diabetic mice
Method: (§2) For qPCR, RNA was isolated using an RNeasy kit (Qiagen). As a template, 1 μg (for tissue) or 0.2 μg (for glia and neurons) of total RNA was reverse-transcribed in 50 μl using a High Capacity cDNA Reverse Transcription Kit (Applied Biosystems) according to the manufacturer's instructions. Three microliters of diluted (1/4) reverse transcription reaction was amplified with specific primers (300 nM each) in a 25 μl PCR with a SYBR Green PCR Master Mix (Applied Biosystems). Analysis of gene expression was done in the ABI PRISM 7000 sequence detector with an initial denaturation at 95° C. for 10 minutes followed by 40 PCR cycles, each cycle consisting of 95° C. for 15 seconds and 60° C. for 1 minute, and SYBR Green fluorescence emissions were monitored after each cycle. For each gene, mRNA expression was calculated relative to Tbp (mouse) or ribosomal 18S (human) expression as an internal control.
To assess the effects of insulin, we directly administered insulin into the cerebral ventricles of STZ-induced diabetic mice by 3 injections of insulin into a catheter placed in the lateral ventricle. […] Food intake was measured immediately before the ICV injection. Four hours after the last injection, blood glucose levels were measured, and the hypothalami collected.

[4] = test system: primary mouse cultured cortical neurons and glia; test: Insulin stimulation of primary cultured cortical neurons and glia, qPCR of cholesterologenic genes; type: cell-based
Method: as §2
To dissect the cell type and factors regulating the changes in cholesterol biosynthesis, neuron and glial cells (astrocytes) were isolated and cultured from the cortices of 16-day-old C57Bl/6 mouse embryos and 1-day-old neonates, respectively. Briefly, the cerebral cortex was dissected from 0-1 day old for glia and day 16 embryonic C57Bl/6 mice under aseptic conditions. Large blood vessels were carefully removed under the microscope. […]

STZ-diabetic mice [5] = test: Food intake after ICV injection in STZ-diabetic mice; type: in vivo, mouse; conditions: insulin ICV injection
Source text: To assess the effects of insulin, we directly administered insulin into the cerebral ventricles of STZ-induced diabetic mice by 3 injections of insulin into a catheter placed in the lateral ventricle. Briefly, seven-week-old C57Bl/6 mice were placed in a stereotactic device under anesthesia, and a 26-gauge guide cannula (Plastics One Inc., Roanoke, Va.) was inserted into the right lateral cerebral ventricle (1.0 mm posterior, 1.0 mm lateral, and 2.0 mm ventral to the bregma). A dummy stylet cannula was inserted into each cannula until used. After a 1 week recovery, mice received a single i.p. injection of STZ to induce diabetes. Twelve days later, the mice received three ICV injections of insulin (3 mU in 2 μL) or the same volume of PBS (9 AM, 7 PM and 9 AM the following day) through an internal cannula using a Hamilton microsyringe. Food intake was measured immediately before the ICV injection. Four hours after the last injection, blood glucose levels were measured, and the hypothalami collected.

Molecule: O=C(CCc1ccc(O)cc1)c1c(O)cc(O)cc1O[C@@H]1O[C@H](CO)[C@@H](O)[C@H](O)[C@H]1O [PHZ, phlorizin]
- suppression of SREBP-2 and its downstream genes in the hypothalamus ([1]; PHZ 0.4 g/kg s.c. twice daily for 10 days, qPCR): did not, however, reverse suppression
- hyperglycemia (blood glucose) (STZ-diabetic mice [2]; PHZ 0.4 g/kg s.c. twice daily for 10 days): efficiently normalized hyperglycemia

Molecule: Cn1cc(C2=C(c3ccc(Cl)cc3Cl)C(=O)NC2=O)c2ccccc21 [SB216763]
- expression of cholesterol synthetic genes (cultured neurons; GSK3 inhibitor treatment, mimicked insulin's effects): broad increase in expression of cholesterol synthetic genes

Molecule: N#CC(=C(/N)Sc1ccccc1N)/C(C#N)=C(\N)Sc1ccccc1N [U0126]
- insulin's effect on Hmgcr induction (cultured neurons; inhibitor given prior to insulin stimulation): partially suppressed

Molecule: insulin
- expression of neuropeptides involved in feeding behavior (Pomc, Agrp, Npy) [3]: partially normalized
- changes in cholesterologenic genes in hypothalamus of diabetic mice ([1]; subcutaneous insulin pellets for one week, qPCR): reversed
- suppression of SREBP-2 pathway in the hypothalamus ([1]; three ICV injections of insulin (3 mU in 2 μL), 4 hours after last injection): almost completely normalized
- stimulation of expression of all cholesterologenic genes ([4]; insulin 10-100 nM, 6 hours, qPCR): 30 to 270%
- cholesterol synthetic gene expression ([4]; primary cultured glia and neurons, 18 days in vitro, insulin 6 h): induces cholesterol synthetic gene expression
- hyperphagia induced by STZ diabetes (food intake) (STZ-diabetic mice [5]): partly reversed the hyperphagia
- blood glucose levels (STZ-diabetic mice [2]; three ICV injections of insulin (3 mU), 4 hours after last injection): did not affect blood glucose levels
